How the values were obtained:
Type in all cases: functional, organism-based
Leishmania braziliensis [1] = assay: Tested in vitro for leishmanicidal activity against Leishmania brasiliensis (2903) at the concentration of 100 ug/mL; ++ indicates 80-90% lysis of parasites
Leishmania braziliensis [2] = assay: In vitro for leishmanicidal activity against Leishmania brasiliensis (2903) at the concentration of 10 ug/mL.
Leishmania braziliensis [3] = assay: In vitro for leishmanicidal activity against Leishmania brasiliensis (2903) at the concentration of 50 ug/mL.
Leishmania donovani [4] = assay: Tested in vitro for leishmanicidal activity against Leishmania donovani (PP75) at the concentration of 10 ug/mL
Leishmania donovani [5] = assay: In vitro for leishmanicidal activity against Leishmania donovani (PP75) at the concentration of 100 ug/mL.
Leishmania donovani [6] = assay: In vitro for leishmanicidal activity against Leishmania donovani (PP75) at the concentration of 25 ug/mL.
Leishmania donovani [7] = assay: In vitro for leishmanicidal activity against Leishmania donovani (PP75) at the concentration of 50 ug/mL.
Leishmania amazonensis [8] = assay: In vitro for leishmanicidal activity against Leishmania amazonensis (PH8) at the concentration of 100 ug/mL.
Leishmania amazonensis [9] = assay: In vitro for leishmanicidal activity against Leishmania amazonensis (PH8) at 25 ug/mL; No lysis of parasites.
Leishmania amazonensis [10] = assay: In vitro for leishmanicidal activity against Leishmania amazonensis (PH8) at the concentration of 50 ug/mL.
Leishmania braziliensis [11] = assay: In vitro for leishmanicidal activity against Leishmania brasiliensis (2903) at the concentration of 25 ug/mL.
Leishmania amazonensis [12] = assay: In vitro for leishmanicidal activity against Leishmania amazonensis (PH8) at the concentration of 10 ug/mL.
Leishmania braziliensis [13] = assay: Tested in vitro for leishmanicidal activity against Leishmania brasiliensis (2903) at the concentration of 100 ug/mL; + indicates Less than 70% lysis of parasites
Leishmania donovani [14] = assay: Tested in vitro for leishmanicidal activity against Leishmania donovani (PP75) at the concentration of 100 ug/mL;+ indicates Less than 70% lysis of parasites
Leishmania amazonensis [15] = assay: Tested in vitro for leishmanicidal activity against Leishmania amazonensis (PH8) at the concentration of 100 ug/mL; + indicates less than 70% lysis of parasites
Leishmania donovani [16] = assay: Tested in vitro for leishmanicidal activity against Leishmania donovani (PP75) at the concentration of 50 ug/mL;++ indicates 80-90% lysis of parasites
Leishmania braziliensis [17] = assay: Tested in vitro for leishmanicidal activity against Leishmania brasiliensis (2903) at the concentration of 10 ug/mL;+ indicates Less than 70% lysis of parasites
Leishmania braziliensis [18] = assay: Tested in vitro for leishmanicidal activity against Leishmania brasiliensis (2903) at the concentration of 50 ug/mL;++ indicates 80-90% lysis of parasites
Leishmania donovani [19] = assay: In vitro for leishmanicidal activity against Leishmania donovani (PP75) at the concentration of 10 ug/mL.
Leishmania donovani [20] = assay: Tested in vitro for leishmanicidal activity against Leishmania donovani (PP75) at the concentration of 25 ug/mL;+ indicates Less than 70% lysis of parasites
Leishmania amazonensis [21] = assay: Tested in vitro for leishmanicidal activity against Leishmania amazonensis (PH8) at the concentration of 25 ug/mL; + indicates less than 70% lysis of parasites
Leishmania braziliensis [22] = assay: In vitro for leishmanicidal activity against Leishmania brasiliensis (2903) at the concentration of 100 ug/mL.
Leishmania braziliensis [23] = assay: Tested in vitro for leishmanicidal activity against Leishmania brasiliensis (2903) at the concentration of 25 ug/mL;+ indicates Less than 70% lysis of parasites

Structure (SMILES)	Activity (Leishmania braziliensis [1])	Activity (Leishmania braziliensis [2])	Activity (Leishmania braziliensis [3])	Activity (Leishmania donovani [4])	Activity (Leishmania donovani [5])	Activity (Leishmania donovani [6])	Activity (Leishmania donovani [7])	Activity (Leishmania amazonensis [8])	Activity (Leishmania amazonensis [9])	Activity (Leishmania amazonensis [10])	Activity (Leishmania braziliensis [11])	Activity (Leishmania amazonensis [12])	other results
CCCCCCCCCCCCCCC(NC(=O)OC(C)(C)C)C(=O)O (stereo unspecified)	80-90% lysis of parasites	80-90% lysis of parasites	80-90% lysis of parasites	80-90% lysis of parasites	80-90% lysis of parasites	80-90% lysis of parasites	80-90% lysis of parasites	80-90% lysis of parasites	80-90% lysis of parasites	80-90% lysis of parasites	80-90% lysis of parasites	80-90% lysis of parasites	
CCCCCCCCCCCCCCC(CO)NC(=O)CCCCCC (stereo unspecified)		Less than 70% lysis of parasites	Less than 70% lysis of parasites	Less than 70% lysis of parasites	Less than 70% lysis of parasites	Less than 70% lysis of parasites	Less than 70% lysis of parasites	Less than 70% lysis of parasites	Less than 70% lysis of parasites	Less than 70% lysis of parasites	Less than 70% lysis of parasites	Less than 70% lysis of parasites	Activity (Leishmania braziliensis [13]): Less than 70% lysis of parasites
CCCCCCCCCCCCCCC(=O)NC(CCCCCCCCCCCCCC)COC(=O)CCCCCCCCCCCCCC (stereo unspecified)		Less than 70% lysis of parasites	Less than 70% lysis of parasites	Less than 70% lysis of parasites		Less than 70% lysis of parasites	Less than 70% lysis of parasites		Less than 70% lysis of parasites	Less than 70% lysis of parasites	Less than 70% lysis of parasites	Less than 70% lysis of parasites	Activity (Leishmania braziliensis [13]): Less than 70% lysis of parasites; Activity (Leishmania donovani [14]): Less than 70% lysis of parasites; Activity (Leishmania amazonensis [15]): Less than 70% lysis of parasites
CCCCCCCCCCCCCCC(N)CO (stereo unspecified)	80-90% lysis of parasites	80-90% lysis of parasites	80-90% lysis of parasites	80-90% lysis of parasites	80-90% lysis of parasites	80-90% lysis of parasites	80-90% lysis of parasites	80-90% lysis of parasites	80-90% lysis of parasites	80-90% lysis of parasites	80-90% lysis of parasites	80-90% lysis of parasites	
CCCCCCCCCCCCCCC(COCc1ccccc1)NC(=O)CCCC(=O)O (stereo unspecified)	80-90% lysis of parasites	80-90% lysis of parasites	80-90% lysis of parasites	80-90% lysis of parasites	80-90% lysis of parasites	80-90% lysis of parasites	80-90% lysis of parasites	80-90% lysis of parasites	80-90% lysis of parasites	80-90% lysis of parasites	80-90% lysis of parasites	80-90% lysis of parasites	
CCCCCCCCCCCCCCC(N)CN (stereo unspecified)	80-90% lysis of parasites	80-90% lysis of parasites	80-90% lysis of parasites	80-90% lysis of parasites	80-90% lysis of parasites	80-90% lysis of parasites	80-90% lysis of parasites	80-90% lysis of parasites	80-90% lysis of parasites	80-90% lysis of parasites	80-90% lysis of parasites	80-90% lysis of parasites	
CCCCCCCCCCCCCCC(CNCC(=O)OCC)NC(=O)OC(C)(C)C (stereo unspecified)					+			+		+		80-90% lysis of parasites	Activity (Leishmania donovani [16]): 80-90% lysis of parasites; Activity (Leishmania braziliensis [17]): 80-90% lysis of parasites; Activity (Leishmania braziliensis [18]): 80-90% lysis of parasites; Activity (Leishmania donovani [19]): 80-90% lysis of parasites; Activity (Leishmania donovani [20]): 80-90% lysis of parasites; Activity (Leishmania amazonensis [21]): 80-90% lysis of parasites; Activity (Leishmania braziliensis [22]): +; Activity (Leishmania braziliensis [23]): 80-90% lysis of parasites
CCCCCCCCCCCCCCC(CN)NC(=O)OC(C)(C)C (stereo unspecified)	80-90% lysis of parasites	80-90% lysis of parasites	80-90% lysis of parasites	80-90% lysis of parasites	80-90% lysis of parasites	80-90% lysis of parasites	80-90% lysis of parasites	80-90% lysis of parasites	80-90% lysis of parasites	80-90% lysis of parasites	80-90% lysis of parasites	80-90% lysis of parasites	
CCCCCCCCCCCCCCC(N)CN(CC)CC (stereo unspecified)					+		+	+		+		Less than 70% lysis of parasites	Activity (Leishmania braziliensis [17]): Less than 70% lysis of parasites; Activity (Leishmania donovani [19]): Less than 70% lysis of parasites; Activity (Leishmania braziliensis [22]): +
C[C@@H]1[C@H](O)[C@@H](C)/C=C/C=C/C=C/C=C/C=C/C=C/C=C/[C@H](O[C@@H]2O[C@H](C)[C@@H](O)[C@H](N)[C@@H]2O)C[C@@H]2O[C@](O)(C[C@@H](O)C[C@@H](O)[C@H](O)CC[C@@H](O)C[C@@H](O)CC(=O)O[C@H]1C)C[C@H](O)[C@H]2C(=O)O					+		+	+		+			
CCCCCCCCCCCCCCC(COCc1ccccc1)NCC(=O)OCC (stereo unspecified)	80-90% lysis of parasites	80-90% lysis of parasites	80-90% lysis of parasites	80-90% lysis of parasites	80-90% lysis of parasites	80-90% lysis of parasites	80-90% lysis of parasites	80-90% lysis of parasites	80-90% lysis of parasites	80-90% lysis of parasites	80-90% lysis of parasites	80-90% lysis of parasites	
CCCCCCCCCCCCCCC(COCc1ccccc1)N(CC)CC (stereo unspecified)	80-90% lysis of parasites	80-90% lysis of parasites	80-90% lysis of parasites	80-90% lysis of parasites	80-90% lysis of parasites	80-90% lysis of parasites	80-90% lysis of parasites	80-90% lysis of parasites	80-90% lysis of parasites	80-90% lysis of parasites	80-90% lysis of parasites	80-90% lysis of parasites	
CCCCCCCCCCCCCCC(COC(=O)CCCCCC)NC(=O)CCCCCC (stereo unspecified)	80-90% lysis of parasites	80-90% lysis of parasites	80-90% lysis of parasites	80-90% lysis of parasites	80-90% lysis of parasites	80-90% lysis of parasites	80-90% lysis of parasites	80-90% lysis of parasites	80-90% lysis of parasites	80-90% lysis of parasites	80-90% lysis of parasites	80-90% lysis of parasites	
CCCCCCCCCCCCCCC(CO)NC(=O)OC(C)(C)C (stereo unspecified)	80-90% lysis of parasites	80-90% lysis of parasites	80-90% lysis of parasites	80-90% lysis of parasites	80-90% lysis of parasites	80-90% lysis of parasites	80-90% lysis of parasites	80-90% lysis of parasites	80-90% lysis of parasites	80-90% lysis of parasites	80-90% lysis of parasites	80-90% lysis of parasites	

Source: ChEMBL document CHEMBL1135076, “Leishmanicidal activity of some aliphatic diamines and amino-alcohols” (Bioorg Med Chem Lett, 2002)
